Laboratory results published in ChEMBL document CHEMBL1909046, “DrugMatrix in vitro pharmacology data”.

Columns and labels:
[1] = DRUGMATRIX: ATPase, Na+/K+ enzyme inhibition (substrate: ATP); type: tissue-based, Sus scrofa, Heart; details: Not Active = under 50% inhibition at 10 µM
[2] = biological target: T1, Cholecystokinin receptor type A (Homo sapiens, UniProt P32238); type: cell membranes, Membrane; details: 1321-n1; further: in other assays of this panel Not Active means under 50% inhibition at 10 µM
T1 sequence (P32238 whole entry): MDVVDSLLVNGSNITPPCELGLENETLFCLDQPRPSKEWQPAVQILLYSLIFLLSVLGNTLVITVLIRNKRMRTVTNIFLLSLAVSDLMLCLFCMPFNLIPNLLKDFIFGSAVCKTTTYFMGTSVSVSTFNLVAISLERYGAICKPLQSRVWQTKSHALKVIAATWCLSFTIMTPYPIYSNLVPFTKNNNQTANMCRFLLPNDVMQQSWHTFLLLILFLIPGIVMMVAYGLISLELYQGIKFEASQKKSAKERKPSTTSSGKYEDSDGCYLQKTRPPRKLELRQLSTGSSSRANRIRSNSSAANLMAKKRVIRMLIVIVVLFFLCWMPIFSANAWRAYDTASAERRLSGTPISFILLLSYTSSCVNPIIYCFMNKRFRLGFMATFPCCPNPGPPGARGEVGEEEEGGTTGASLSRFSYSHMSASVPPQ

[3] = DRUGMATRIX: Sigma2 radioligand binding (ligand: [3H] Ifenprodil); type: cell membranes, Rattus norvegicus, Wistar, Brain, Membrane; details: Not Active = under 50% inhibition at 10 µM
[4] = biological target: T2, Muscarinic acetylcholine receptor M2 (Homo sapiens, UniProt P08172); type: cell membranes, CHO-K1, Membrane; details: cho-k1; further: in other assays of this panel Not Active means under 50% inhibition at 10 µM
T2 sequence (P08172 whole entry): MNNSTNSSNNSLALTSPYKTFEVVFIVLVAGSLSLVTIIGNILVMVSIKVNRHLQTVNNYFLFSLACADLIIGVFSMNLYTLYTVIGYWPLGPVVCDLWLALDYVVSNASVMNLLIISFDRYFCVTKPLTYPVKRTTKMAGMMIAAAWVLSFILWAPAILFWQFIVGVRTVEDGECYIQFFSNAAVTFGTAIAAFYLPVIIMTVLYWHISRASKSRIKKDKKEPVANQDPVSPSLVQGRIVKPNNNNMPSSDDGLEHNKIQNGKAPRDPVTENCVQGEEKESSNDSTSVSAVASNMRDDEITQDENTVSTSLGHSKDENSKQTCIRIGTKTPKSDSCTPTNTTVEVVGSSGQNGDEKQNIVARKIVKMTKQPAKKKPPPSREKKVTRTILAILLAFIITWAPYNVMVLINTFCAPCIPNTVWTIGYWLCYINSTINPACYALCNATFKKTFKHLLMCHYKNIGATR

[5] = DRUGMATRIX: GABAA, Flunitrazepam, Central radioligand binding (ligand: [3H] Flunitrazepam); type: cell membranes, Rattus norvegicus, Wistar, Brain, Membrane; details: Not Active = under 50% inhibition at 10 µM
[6] = DRUGMATRIX: Glutamate, NMDA, Agonism radioligand binding (ligand: [3H] CGP-39653); type: cell membranes, Rattus norvegicus, Wistar, Cerebral cortex, Membrane; details: Not Active = under 50% inhibition at 10 µM
[7] = biological target: Glycine receptor (Rattus norvegicus, UniProt P22771+P24524+P07727+P20781); type: cell membranes, Wistar, Spinal cord, Membrane; further: in other assays of this panel Not Active means under 50% inhibition at 10 µM

CCCN(CCC)C(=O)C(CCC(=O)O)NC(=O)c1ccccc1 (centres undefined) [PROGLUMIDE]
Not Active: IC50 [1] | Ki [1] | IC50 [2] | IC50 [3] | Ki [3] | IC50 [4] | IC50 [5] | Ki [5] | IC50 [6] | Ki [6] | IC50 [7]

NC(=O)c1cnccn1 [PYRAZINAMIDE]
Not Active: IC50 [1] | Ki [1] | IC50 [2] | IC50 [3] | Ki [3] | IC50 [4] | IC50 [5] | Ki [5] | IC50 [6] | Ki [6] | IC50 [7]

Cc1cc2cc3c(C)cc(=O)oc3c(C)c2o1 [TRIOXSALEN]
Not Active: IC50 [1] | Ki [1] | IC50 [2] | IC50 [3] | Ki [3] | IC50 [4] | IC50 [5] | Ki [5] | IC50 [6] | Ki [6] | IC50 [7]

CCCC(CCC)C(=O)O [VALPROIC ACID]
Not Active: IC50 [1] | Ki [1] | IC50 [2] | IC50 [3] | Ki [3] | IC50 [4] | IC50 [5] | Ki [5] | IC50 [6] | Ki [6] | IC50 [7]

CCC1=C[C@@H]2CN(C1)Cc1c([nH]c3ccccc13)[C@@](C(=O)OC)(c1cc3c(cc1OC)N(C)[C@H]1[C@@](O)(C(=O)OC)[C@H](OC(C)=O)[C@]4(CC)C=CCN5CC[C@]31[C@@H]54)C2 [VINORELBINE]
Not Active: IC50 [1] | Ki [1] | IC50 [2] | IC50 [3] | Ki [3] | IC50 [4] | IC50 [5] | Ki [5] | IC50 [6] | Ki [6] | IC50 [7]

CADMIUM DICHLORIDE
Not Active: IC50 [1] | Ki [1] | IC50 [2] | Ki [2] | IC50 [3] | Ki [3] | IC50 [4] | Ki [4] | IC50 [5] | Ki [5] | IC50 [6] | Ki [6] | IC50 [7] | Ki [7]
